The source of these data is PMC12257542, “A Radiolabeled Photoswitchable G Protein-Coupled Receptor Antagonist Enlightens Ligand Binding Kinetics Associated with Photoswitching” (Journal of the American Chemical Society, 2025).

The target in data set [1] is T1, H1R (Homo sapiens, UniProt P35367).
T1 construct: HA; expressed in transfected cells; host or cells: HEK293T, transient transfection (pcDEF3), cell homogenates
Description: Histamine receptor selectivity binding, [3H]mepyramine competition on cell homogenates expressing H1R. To be noted: trans isomer; at concentrations lower than 1 μM; competition with [3H]mepyramine.

Data set [2] can be described thus: UV-vis spectra of trans and PSS cis states in HBSS buffer. In kind it is physicochemical. The settings on record: 25 μM in HBSS buffer containing 1% DMSO. The method, then: (§1) Experimental procedures – Photochemistry
UV−Vis spectra were recorded using a Thermo-scientific Evolution 201 PC spectrophotometer equipped with a thermostated cell holder set at 20 °C. Fits of UV−vis spectroscopy data were generated using Prism 10.1.0. Illumination for almost all photochemical experiments was executed using a Sutter instruments Lambda LS with a 300 W full-spectrum lamp connected to a Sutter instruments Lambda 10-3 optical filter changer equipped with 360 ± 10 nm, 434 ± 9 nm 494 ± 9 nm, or a Lambda 721 optical beam combiner system equipped with 365 ± 11 nm and 506 ± 14 nm filter. The light intensity used for the lambda 10-3 optical filter is 0.93 mW/mm2 using the 360 ± 20 nm filter, 0.79 mW/mm2 for the 434 ± 9 nm filter, 0.77 mW/mm2 for the 494 ± 9 nm filter as measured using a Thorlabs PM16−401 power meter. The light intensity used for the lambda 721 optical beam combiner is 200 mW using the 365 ± 11 nm filter and 60 mW for the 506 ± 12 nm filter. For photochemical analyses, illuminations were performed in Hellma Suprasil quartz 114QS cuvettes. For the dynamic illuminations, a 4-way cuvette holder (Avantes) was used. The left outlet of the holder is connected to an Avantes AvaLight-DH-S-BAL Deuterium lamp. The right outlet is connected through a fiber to an AvaSpec UV/Vis spectrometer. The lower outlet is connected to a Lambda 721 optical beam combiner system equipped with 365 ± 11 nm and 506 ± 14 nm filter illumination means. The upper outlet is covered with a black cap. The temperature of the solution in the cuvette (20 °C) is controlled by Q-blue Wireless Temperature Control software. […]
The typical distance […]
between light source and vial or cuvette was 2 cm.

Data set [3] addresses Nluc-H2R (Homo sapiens, UniProt P25021). In kind it is binding. To be noted: trans isomer; at concentrations lower than 1 μM; competition with 50 nM UR-KAT478.
The target of data set [4] is T2, mouse H3R (Mus musculus, UniProt P58406).
T2 construct: expressed in transfected cells; host or cells: HEK293T, transient transfection (pcDEF3), cell homogenates
T2 sequence (P58406 whole entry): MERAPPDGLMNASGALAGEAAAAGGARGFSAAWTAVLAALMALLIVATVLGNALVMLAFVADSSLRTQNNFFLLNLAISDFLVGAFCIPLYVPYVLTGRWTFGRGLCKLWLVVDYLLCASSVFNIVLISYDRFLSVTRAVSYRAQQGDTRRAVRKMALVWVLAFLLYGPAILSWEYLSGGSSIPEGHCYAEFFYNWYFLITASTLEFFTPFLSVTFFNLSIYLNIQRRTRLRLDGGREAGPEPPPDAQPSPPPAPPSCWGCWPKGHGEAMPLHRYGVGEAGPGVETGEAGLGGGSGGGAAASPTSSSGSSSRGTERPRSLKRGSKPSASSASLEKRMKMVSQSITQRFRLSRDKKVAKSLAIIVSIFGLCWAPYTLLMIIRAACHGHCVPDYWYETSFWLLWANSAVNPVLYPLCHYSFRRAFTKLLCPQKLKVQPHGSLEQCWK
Description: [3H]NAMH competition radioligand binding on mH3R-expressing cell homogenates. On the procedure: Figure S15. Histamine receptor selectivity binding experiments. Concentration binding curves of trans-3f on cell homogenates expressing H1R (in competition with 4.0-4.8 nM [3H]mepyramine) or H4R (competition with 1.9-2.4 nM [3H]histamine. H2R binding was […]
KAT478). Pooled data of three independent experiments are shown as mean ± SEM.
Figure S16. Radioligand binding experiments with 3f on mH3R-expressing cell homogenates in competition with [3H]NAMH (1.4-1.7 nM). Pooled data of three independent experiments […]
Experimental procedures - Pharmacology […]
were purchased from Promega.
HEK293T cells stably expressing
48 hours post transfection,
[3H]3f binding experiments […]
by sonication (Sonifier Branson).
RT) containing 0.8% ethanol.
The incubation was terminated by
H2R selectivity was assessed
Cells were incubated with ligands

Data set [5] has as its target H3R (Homo sapiens, UniProt Q9Y5N1). The experiment in a line: [3H]NAMH competition radioligand binding on cell homogenates overexpressing H3R. To be noted: for Ki: [3H]NAMH competition, n = 3.
A short description of data set [6]: Thermal relaxation of PSS cis states (Arrhenius extrapolation). In kind it is physicochemical. The settings on record: approximate; HBSS buffer + 1% DMSO, extrapolated to 20 °C. On the procedure: as §1
UV−Vis spectra were recorded using a Thermo-scientific Evolution 201 PC spectrophotometer equipped with a thermostated cell holder set at 20 °C. Fits of UV−vis spectroscopy data were generated using Prism 10.1.0. Illumination for almost all photochemical experiments was executed using a Sutter instruments Lambda LS with a 300 W full-spectrum lamp connected to a Sutter instruments Lambda 10-3 optical filter changer equipped with 360 ± 10 nm, 434 ± 9 nm 494 ± 9 nm, or a Lambda 721 optical beam combiner system equipped with 365 ± 11 nm and 506 ± 14 nm filter. The light intensity used for the lambda 10-3 optical filter is 0.93 mW/mm2 using the 360 ± 20 nm filter, 0.79 mW/mm2 for the 434 ± 9 nm filter, 0.77 mW/mm2 for the 494 ± 9 nm filter as measured using a Thorlabs PM16−401 power meter. The light intensity used for the lambda 721 optical beam combiner is 200 mW using the 365 ± 11 nm filter and 60 mW for the 506 ± 12 nm filter. For photochemical analyses, illuminations were performed in Hellma Suprasil quartz 114QS cuvettes. For the dynamic illuminations, a 4-way cuvette holder (Avantes) was used. The left outlet of the holder is connected to an Avantes AvaLight-DH-S-BAL Deuterium lamp. The right outlet is connected through a fiber to an AvaSpec UV/Vis spectrometer. The lower outlet is connected to a Lambda 721 optical beam combiner system equipped with 365 ± 11 nm and 506 ± 14 nm filter illumination means. The upper outlet is covered with a black cap. The temperature of the solution in the cuvette (20 °C) is controlled by Q-blue Wireless Temperature Control software.
Thermal relaxation experiments and Arrhenius extrapolations were performed according to Priimagi et al20, using a compound concentration of 25 μM in HBSS +1% DMSO and temperatures of 50, 60, and 70 °C. Illuminations for pharmacological experiments were performed in cylindrical clear glass vials with a volume of 4.5 mL. The typical distance between light source and vial or cuvette was 2 cm.

Several values for one entry are separate records, joined by “and”; a condition that tells them apart may be missing. Equal values may be shown once.

H3R, sequence (Q9Y5N1 whole entry): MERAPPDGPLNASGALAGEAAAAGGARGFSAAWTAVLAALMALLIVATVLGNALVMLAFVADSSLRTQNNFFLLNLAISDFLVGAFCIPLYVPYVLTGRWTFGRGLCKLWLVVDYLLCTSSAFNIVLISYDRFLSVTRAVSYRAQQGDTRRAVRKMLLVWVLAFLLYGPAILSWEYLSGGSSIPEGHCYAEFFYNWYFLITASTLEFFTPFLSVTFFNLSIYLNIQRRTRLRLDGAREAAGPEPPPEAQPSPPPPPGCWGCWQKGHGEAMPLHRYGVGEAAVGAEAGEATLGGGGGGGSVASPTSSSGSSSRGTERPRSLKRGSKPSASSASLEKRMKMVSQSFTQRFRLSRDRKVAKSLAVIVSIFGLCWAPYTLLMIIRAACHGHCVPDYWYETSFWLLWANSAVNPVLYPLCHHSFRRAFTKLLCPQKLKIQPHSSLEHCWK
Nluc-H2R, sequence (P25021 whole entry): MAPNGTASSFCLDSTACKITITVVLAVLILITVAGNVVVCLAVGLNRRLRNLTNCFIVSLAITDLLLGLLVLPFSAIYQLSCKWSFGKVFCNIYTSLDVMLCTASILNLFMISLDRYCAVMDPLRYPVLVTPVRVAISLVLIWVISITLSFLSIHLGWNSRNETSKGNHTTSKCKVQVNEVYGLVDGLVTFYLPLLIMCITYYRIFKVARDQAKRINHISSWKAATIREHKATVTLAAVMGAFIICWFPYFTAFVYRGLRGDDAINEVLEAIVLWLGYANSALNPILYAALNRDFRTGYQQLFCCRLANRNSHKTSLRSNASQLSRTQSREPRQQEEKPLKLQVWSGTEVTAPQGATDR
T1 sequence (P35367 whole entry): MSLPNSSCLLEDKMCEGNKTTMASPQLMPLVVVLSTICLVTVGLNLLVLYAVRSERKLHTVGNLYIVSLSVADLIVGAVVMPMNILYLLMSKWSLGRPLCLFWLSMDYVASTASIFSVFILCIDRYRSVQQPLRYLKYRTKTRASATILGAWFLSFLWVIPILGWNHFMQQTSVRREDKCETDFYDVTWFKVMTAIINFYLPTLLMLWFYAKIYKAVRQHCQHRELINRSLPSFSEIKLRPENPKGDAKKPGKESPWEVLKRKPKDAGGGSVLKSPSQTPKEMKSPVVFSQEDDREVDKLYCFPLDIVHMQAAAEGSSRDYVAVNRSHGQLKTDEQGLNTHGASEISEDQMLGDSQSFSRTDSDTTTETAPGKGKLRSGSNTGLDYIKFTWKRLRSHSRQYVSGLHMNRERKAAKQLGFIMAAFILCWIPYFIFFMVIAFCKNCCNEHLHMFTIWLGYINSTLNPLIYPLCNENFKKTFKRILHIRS

Regarding `Cc1nn(C2CCN(C)CC2)c(C)c1/N=N/c1ccc(O[C@H]2C[C@H](N3CCCCC3)C2)cc1` [Compound 3f], the “binding to H1R” value in data set [1] is recorded as “does not bind”. The λmax cis in data set [2] is recorded as 439 nm. This compound also showed a λmax trans in data set [2] of 348 nm. Also, the “binding to H2R” value in data set [3] is on record as “does not bind”. In addition, the Ki in data set [4] (trans isomer, [3H]NAMH (1.4-1.7 nM), read-out: pKi mouse H3R (converted)) was 1.58 nM; in data set [5] (pKi PSScis ± SEM, PSS cis state) it was 25.1 nM; in data set [5] (pKi trans ± SEM, trans isomer), 0.501 nM. For the same compound, the “fold shift in affinity upon photoisomerization to PSS cis (mouse H3R)” value in data set [4] (trans versus PSS cis) was determined as 42 fold. Besides, the “Fold Ki shift” value in data set [5] ((high-affinity state)/(low-affinity state), ↓ lower affinity of PSS cis state than trans) is 50 fold and 50.1 ↓ fold. The “Half-life (thermal relaxation of PSS cis state)” value in data set [6] is listed as 13 days.
